Experimental data published in patent US12473250B2, “Molecular design of new antibiotics and antibiotic adjuvants against MCR strains” (priority 2019, dated 2025).
≈ marks a conversion by molar mass, not a printed value.

Key:
[1] = system: colistin resistant MCR (+) E. Coli strains; assay: MIC, broth microdilution, compound alone; format: cell-based
How it was run: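 Wells held ~5×10^5 CFU/mL of bacteria prepared to 0.5 McFarland from overnight TSA colonies and exposed to serially diluted agents, following modified CLSI microdilution. After 24 h at 35 °C, growth judged by turbidity (OD600 possible); 99% inhibition sets the MIC.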

[2] = system: ACBA multi-drug resistant strains; assay: MIC against multi-drug resistant strains (Table 5); format: cell-based, Acinetobacter baumannii; settings: alone
Protocol: MIC experiments of the antimicrobial agents were determined by a modified broth microdilution method in accordance with the Clinical and Laboratory Standards Institute (CLSI) guidelines using 96 well culture plates. In brief, serial dilutions of all plates were prepared at different concentrations (μg). The inoculum suspension was prepared by adding isolated colonies from a 18-20 hours on TSA plate into phosphate buffer (0.31 mM, pH 7.2) or in water for injection (BBraun) and adjusting the suspension to a turbidity equivalent to 0.5 McFarland Standard. Each well contained a final bacterial concentration of approximately 5×10^5 colony forming units (CFU)/mL. The plate was covered and incubated at 35° C. for 24 hours. […] For the microdilution plates, turbidity in wells can be measured at OD600 using TECAN infinite M200Pro. MIC was determined as […] concentration that gives a 99 percent inhibition.

[3] = system: ENT CLOACAE multi-drug resistant strains; assay: Synergy of LC100 with colistin against multi-drug resistant strains (Table 5); format: cell-based, E. cloacae
Protocol: The MICs of the individual drugs and LC compound in combinations were determined using the broth microdilution technique as recommended by the CLSI whereby the two anti-microbial agents were added in an equal amount. (e.g.: 50 μL of Colistin: 50 μL of LC compounds). Diluted media containing compounds and antibiotics will be serially diluted 2-fold, and LC compounds and antibiotics alone or in combination will be assayed at fixed synergy concentration. In all cases, the lowest concentration at which no visible growth occurred was be recorded to be the MIC value of individual and combined antibacterial agents. The results were obtained after 24 hours of incubation.

[4] = system: colistin resistant mcr-1 (+) strains 6083655967, 6075066346 and mcr-1 (−) strain 7023446108; assay: Time kill study; format: cell-based, E. coli; settings: in 2 hours
Protocol: Time kill assay is used to determine the rate at which concentrations an antimicrobial agent kill a bacterial isolate. The bacterial suspension was adjusted to 10^6 to 10^7 CFU/mL with different concentrations of LC compounds and the antibiotics for comparison in separate tubes that incubated at 35° C. For synergy time kill: Two different antimicrobial agents which are antibiotic/LC compounds were added in an equal amount make a final volume to 1 mL (e.g: 500 μL of Antibiotic: 500 μL of LC compound) and subsequently 1 mL of prepared bacteria suspension were added into the same tube. Aliquots of 100 μL samples will be withdrawn at different time intervals (0, 1, 2, 4, 8, 24 hours) and were plated on Mueller Hinton Agar (MHA) upon set of serial dilutions. Subsequently, after 24 and 48 hours, all the plates were checked for bacteria growth and the colonies were calculated for colony-forming unit (CFU/mL) numeration and the time kill curve plotted with logarithm of the viable count against time. The results from various concentrations of antibiotics and control were plotted.
To understand the action of the combinations of LC100 with colistin, time kill experiments using the inventive combination in three colistin resistant strains, including two mcr-1(+) and one mcr-1(−) strains, were carried out.

mcr-1 bacterial membrane = assay: Ethidium bromide (EtBr) fluorescence, membrane disruption; format: cell-based; settings: mcr-1 bacteria; in words
Protocol: However, EtBr is membrane impermeable, which means that it can only enter the bacterial cell and bind to DNA and emit fluorescence only when both the bacterial outer and inner membranes are perturbed. […] It is also possible that LC100 may have other targets. One possible target is the MCR-1 protein. To understand the interaction of LC100 and the MCR-1 protein, the fluorescence of MCR-1 protein in the presence of different concentration of LC100 was measured. MCR-1 protein contains several tryptophan residues, and autofluoresces at 323 nm.

[5] = system: MCR positive E. coli Clinical isolate 6083655967; format: in vivo; settings: for reduction in bacterial burden: neutropenic mice, i.p. 1 hour after infection, 6 hours after treatment, colistin 10 mg/kg, LC100 50 mg/kg, meropenem 100 mg/kg, combination 50 + 10 mg/kg
Protocol: FIG. 21 refers to graphs showing the efficacy testing of combination of LC100 and Colistin in neutropenic mouse thigh infection model infected with MCR positive E. coli Clinical isolate 6083655967. Starting inoculum was 1.87×10^6, N=3. “Combination” refers to Colistin 10 mg/kg+LC100 50 mg/kg. Each treatment was done intraperitoneally 1 hour after infection. 6 hours after treatment, mouse thigh tissues were homogenized for viable CFU.
The combination of colistin and antimicrobial peptide (LC100) was tested against E. coli clinical isolate MCR-positive strain 6083655967 in a neutropenic mouse thigh infection model. C57BL/6 mice were rendered neutropenic by cyclophosphamide, dosed at 150 and 100 mg kg-1 delivered on days −4 and −1 prior to infection. Bacteria were suspended in sterile saline and adjusted to a concentration of ˜1.876×10^6 CFU per infection site (100 micro-liters) and injected intramuscularly into the right thigh of five mice per treatment group. At 1 h post infection, mice received colistin ([…], i.p. n=5), LC100 (50 mg kg-1, i.p. n=5), untreated (n=5), or the combination (n=5). Mice were euthanized 6 h after infection; thigh tissue was aseptically collected, homogenized, serially diluted in PBS and plated onto solid TSA supplemented plates. Plates were incubated overnight at 37° C. and colonies were quantified to determine bacterial load.
To evaluate the in vivo efficacy of the combination of LC100 and colistin, a neutropenic mouse thigh infection model was used. 30 mice were classed into 5 groups: control, colistin at 10 mg/kg, LC100 at 50 mg/kg, meropenem at 100 mg/kg and combination of 50 mg/kg of LC100 and 10 mg/kg of colistin. Each treatment was administered intraperitoneally 1 hour after infection. The starting inoculum was 1.87×10^6, and 6 hours after treatment, mouse thigh tissues were homogenized for viable CFU. […] As neutropenic mice were used in the study, the 1.2 log reduction in bacterial burden is due to the combination of LC100 and colistin rather than the immune system of the mouse.

[6] = strain 6075066346, MCR (+), compound alone
[7] = strain 6083655967, MCR (+), compound alone
[8] = strain 6103645107, MCR (+), compound alone
[9] = strain 6123520276, MCR (+), compound alone
[10] = strain 7013177695, MCR (+), compound alone
[11] = strain 7023436560, MCR (+), compound alone

Row | Compound | MIC [1, 6] | MIC [1, 7] | MIC [1, 8] | MIC [1, 9] | MIC [1, 10] | MIC [1, 11] | MIC ([2]; strain ACBA 1010) | MIC ([2]; strain ACBA 1012) | MIC ([2]; strain ACBA 43357) | MIC ([2]; strain ACBA ATCC 19606) | EtBr fluorescence (mcr-1 bacterial membrane) | reduction in bacterial burden [5] | other results
1 | CCN(CC)CCCCOc1ccc(/C=C/C(=O)c2ccc(OCCCCN(CC)CC)c(CC=C(C)C)c2O)cc1 [LC100] | 100 µg/mL (≈ 173 µM) | 100 µg/mL (≈ 173 µM) | 100 µg/mL (≈ 173 µM) | 100 µg/mL (≈ 173 µM) | 100 µg/mL (≈ 173 µM) | 100 µg/mL (≈ 173 µM) | 25 µg/mL (≈ 43.2 µM) | 50 µg/mL (≈ 86.4 µM) | 50 µg/mL (≈ 86.4 µM) | >50 µg/mL | slight fluorescence | cannot reduce the bacterial burden | antimicrobial activity when used alone ([1]; colistin resistant bacteria, in words): no activity; MIC ([1]; strain 7028444207 (Table 1b), MCR (+), compound alone): 100 µg/mL (≈ 173 µM); Colistin MIC in the presence of LC100 ([3]; strain ENT CLOACAE 6780, LC 100 2 μg): 0.39 µg/mL; Colistin MIC in the presence of LC100 ([3]; strain ENT CLOACAE 6780, LC 100 5 μg): <0.0975 µg/mL; Colistin MIC in the presence of LC100 ([3]; strain ENT CLOACAE 21489, LC 100 2 μg): 0.195 µg/mL; Colistin MIC in the presence of LC100 ([3]; strain ENT CLOACAE 21489, LC 100 5 μg): <0.0975 µg/mL; Colistin MIC in the presence of LC100 ([3]; strain ENT CLOACAE 30063, LC 100 2 μg): 25 µg/mL; Colistin MIC in the presence of LC100 ([3]; strain ENT CLOACAE 30063, LC 100 5 μg): 6.25 µg/mL; Colistin MIC in the presence of LC100 ([3]; strain ENT CLOACAE 44095, LC 100 2 μg): >25 µg/mL; Colistin MIC in the presence of LC100 ([3]; strain ENT CLOACAE 44095, LC 100 5 μg): >25 µg/mL; log reduction in time kill ([4]; ⅛ MIC of colistin in the presence of 10 μg/ml of LC100): 3 log; observations in treated mice ([5]; LC100 50 mg/kg or Colistin 10 mg/kg+LC100 50 mg/kg, intraperitoneally): Abdominal distension
2 | Colistin | 6.25 µg/mL | 6.25 µg/mL | 6.25 µg/mL | 6.25 µg/mL | 6.25 µg/mL | 6.25 µg/mL | 0.78 µg/mL | 0.78 µg/mL | 3.125 µg/mL | 1.56 µg/mL | slight fluorescence | cannot reduce the bacterial burden | colistin MIC ([1]; colistin alone): more than 6 μg/ml; MIC ([1]; panel of colistin resistant strains): 6.25 µg/mL; MIC ([1]; strain 7023444207, MCR (+), compound alone): 6.25 µg/mL; log reduction in time kill ([4]; colistin at concentrations equal or above the MIC): 3 log
